# According to US8022055B2, “Betulinic acid derivatives” (Dabur Pharma Limited, priority 2005, dated 2011):
# Legend:
# NIH 3T3 cells = experiment: NIH3T3 cytotoxicity test (72 h MTT assay); assay type: cell-based; conditions: NIH3T3, 72 hours
# Experimental: The cytotoxic effect of chemicals upon NIH 3T3 cells in culture is measured by cell metabolism determination using the previously described MIT assay. Healthy NIH 3T3 cells (an established cell-line), when maintained in culture continuously divide and multiply over time. The basis of this test is that a cytotoxic chemical (regardless of site or mechanism of action) will interfere with this process and, thus, result in a reduction of the growth rate as reflected by cell number. The degree of inhibition of growth, related to the concentration of the test compound, provides an indication of toxicity.
# The NIH 3T3 cells are maintained in culture and exposed to test compounds over a range of concentrations and the number of viable cells determined after 72 hours exposure by MIT assay. The number of cells in the presence of test chemicals are compared to that observed in control cultures and the percent inhibition of growth calculated. The IC50 concentration (i.e. the concentration producing 50% inhibition of growth) is determined and expressed as μg/ml. A ratio of IC50 of NIH 3T3 cells to tumor cells is an indicator of predicted toxicity of the molecule and is represented as “Safety Index”. The higher the value, the better is the predicted safety of the molecule.
# PA1 = experiment: three day MTT cytotoxicity assay, PA1; assay type: cell-based, human; conditions: for IC50 for cell lines PA1: PA1, 72 hours
# Experimental: (§1) Briefly, a three day MTT cytotoxicity assay was performed, which is based on the principle of uptake of MTT (3-(4,5-dimethylthiazol-2-yl)-2,5-diphenyl tetrazolium bromide), a tetrazolium salt, by the metabolically active cells where it is metabolized by active mitochondria into a blue colored formazan product that is read spectrophotometrically. MIT was dissolved in phosphate buffered saline with a pH of 7.4 to obtain an MIT concentration of 5 mg/ml; the resulting mixture was filtered through a 0.22-micron filter to sterilize and remove a small amount of insoluble residue. For each type of tumor cell, 10,000 to 15,000 cells were seeded in a 96-well culture plate and incubated with the individual betulinic acid derivatives in a CO2 incubator for a total of 72 hours. Control cells not treated with the betulinic acid derivatives were similarly incubated. The assay was terminated by adding 100 μg (20 μl) of MIT to each well then incubating for additional one hour, and finally adding 50 μl of 10% SDS-0.01N HCl to each well to lyse the cells and dissolve formazan. After incubating for one hour, the plate was read spectrophotometrically at 540 nm and the percentage of cytotoxicity calculated using the following formula: Cytotoxicity percentage=100×[1−(X/R1)], where X=(absorbance of treated sample at 540 nm)−(absorbance of blank at 540 nm) R1=absorbance of control sample at 540 nm. The IC50 Values of the cytotoxicity defined as the concentration at which 50% of the cells are killed in vitro was calculated for each cell line treated with each of the betulinic acid derivatives.
# DU145 = experiment: three day MTT cytotoxicity assay, DU145; assay type: cell-based, human; conditions: for IC50 for cell lines DU145: DU145, 72 hours
# Experimental: (§2) A number of compounds listed in Table-3 were tested for cytotoxicity against prostate, lung, laryngeal, pancreas, breast, colon and ovarian cancer, leukemia and lymphoma, human tumor cell lines. Briefly, a three day MTT cytotoxicity assay was performed, which is based on the principle of uptake of MTT (3-(4,5-dimethylthiazol-2-yl)-2,5-diphenyl tetrazolium bromide), a tetrazolium salt, by the metabolically active cells where it is metabolized by active mitochondria into a blue colored formazan product that is read spectrophotometrically. MIT was dissolved in phosphate buffered saline with a pH of 7.4 to obtain an MIT concentration of 5 mg/ml; the resulting mixture was filtered through a 0.22-micron filter to sterilize and remove a small amount of insoluble residue. For each type of tumor cell, 10,000 to 15,000 cells were seeded in a 96-well culture plate and incubated with the individual betulinic acid derivatives in a CO2 incubator for a total of 72 hours. Control cells not treated with the betulinic acid derivatives were similarly incubated. The assay was terminated by adding 100 μg (20 μl) of MIT to each well then incubating for additional one hour, and finally adding 50 μl of 10% SDS-0.01N HCl to each well to lyse the cells and dissolve formazan. After incubating for one hour, the plate was read spectrophotometrically at 540 nm and the percentage of cytotoxicity calculated using the following formula: Cytotoxicity percentage=100×[1−(X/R1)], where X=(absorbance of treated sample at 540 nm)−(absorbance of blank at 540 nm) R1=absorbance of control sample at 540 nm. The IC50 Values of the cytotoxicity defined as the concentration at which 50% of the cells are killed in vitro was calculated for each cell line treated with each of the betulinic acid derivatives.
# SW620 = experiment: three day MTT cytotoxicity assay, SW620; assay type: cell-based, human; conditions: for IC50 for cell lines SW620: SW620, 72 hours
# Experimental: as §1
# HBL100 = experiment: three day MTT cytotoxicity assay, HBL100; assay type: cell-based, human; conditions: for Specific Index (SI) for cell lines HBL100: ratio of IC50 of NIH 3T3 cells to HBL100
# Experimental: as §2
# Miapaca = experiment: three day MTT cytotoxicity assay, Miapaca; assay type: cell-based, human; conditions: for Specific Index (SI) for cell lines Miapaca: ratio of IC50 of NIH 3T3 cells to Miapaca
# Experimental: as §2
# A549 = experiment: three day MTT cytotoxicity assay, A549; assay type: cell-based, human; conditions: for Specific Index (SI) for cell lines A549: ratio of IC50 of NIH 3T3 cells to A549
# Experimental: as §2
# K562 = experiment: three day MTT cytotoxicity assay, K562; assay type: cell-based, human; conditions: for Specific Index (SI) for cell lines K562: ratio of IC50 of NIH 3T3 cells to K562
# Experimental: as §2
Compound,IC50 for cell lines NIH3T3 (NIH 3T3 cells) [µg/mL],IC50 for cell lines PA1 (PA1) [µg/mL],IC50 for cell lines DU145 (DU145) [µg/mL],IC50 for cell lines SW620 (SW620) [µg/mL],"IC50 for cell lines HBL100 (HBL100; HBL100, 72 hours, MTT) [µg/mL]","IC50 for cell lines Miapaca (Miapaca; Miapaca, 72 hours, MTT) [µg/mL]","IC50 for cell lines A549 (A549; A549, 72 hours, MTT) [µg/mL]","IC50 for cell lines K562 (K562; K562, 72 hours, MTT) [µg/mL]",Specific Index (SI) for cell lines HBL100 (HBL100),Specific Index (SI) for cell lines Miapaca (Miapaca),Specific Index (SI) for cell lines K562 (K562),"IC50 (NIH 3T3 cells; Mus musculus, read-out: IC50 for cell lines NIH3T3) [µg/mL]","IC50 (PA1; Homo sapiens, PA-1, PA1, 72 hours, read-out: IC50 for cell lines PA1) [µg/mL]","IC50 (DU145; Homo sapiens, DU-145, DU145, 72 hours, read-out: IC50 for cell lines DU145) [µg/mL]","IC50 (SW620; Homo sapiens, SW-620, SW620, 72 hours, read-out: IC50 for cell lines SW620) [µg/mL]","IC50 (HBL100; Homo sapiens, HBL-100, HBL100, 72 hours, MTT, read-out: IC50 for cell lines HBL100) [µg/mL]","IC50 (Miapaca; Homo sapiens, MIA PaCa-2, Miapaca, 72 hours, MTT, read-out: IC50 for cell lines Miapaca) [µg/mL]","IC50 (A549; Homo sapiens, A549, 72 hours, MTT, read-out: IC50 for cell lines A549) [µg/mL]","IC50 (K562; Homo sapiens, K562, 72 hours, MTT, read-out: IC50 for cell lines K562) [µg/mL]",Specific Index (SI) for cell lines A549 (A549)
"C=CCOC(=O)[C@]12CC[C@@H](C(=C)C)C1C1CCC3[C@@]4(C)Cc5c([nH]c6ccccc56)C(C)(C)C4CC[C@@]3(C)[C@]1(C)CC2 (stereo partly drawn) [Compound 18, 28-O-Allyl-2,3-didehydroindolo[2′,3′:2,3]betulinate]",>20,>20,>20,>20,>20,>20,>20,>20,–,–,–,–,–,–,–,–,–,–,–,–
"C=C(C)[C@@H]1CC[C@]2(C(=O)NCC(=O)O)CC[C@]3(C)[C@H](CC[C@@H]4[C@@]5(C)Cc6c([nH]c7ccccc67)C(C)(C)[C@@H]5CC[C@]43C)[C@@H]12 [Compound 22, 28-N-Glycine-2,3-didehydroindolo[2′,3′:2,3]betulinamide]",0.68 ± 0.003,3.0,7.0,8.7,>20,0.67 ± 0.03,3.53 ± 0.82,11.92 ± 1.37,<0.034,1.015,0.057,–,–,–,–,–,–,–,–,–
"C=C(C)[C@@H]1CC[C@]2(C(=O)NC3CC3)CC[C@]3(C)C(CCC4[C@@]5(C)Cc6c([nH]c7ccc(Cl)cc67)C(C)(C)C5CC[C@]43C)C12 (stereo partly drawn) [Compound 34, 28-N-Cyclopropyl-5′-chloro-2,3-didehydroindolo[2′,′:2,3]betulinamide]",1.82,>20,>20,>20,>20,>20,>20,>20,–,–,–,–,–,–,–,–,–,–,–,–
"28-O-Pivaloyoxymethyl-2,3-didehydroindolo[2′,3′:2,3]betulinate [Compound 17]",>20,>20,>20,>20,>20,>20,>20,>20,–,–,–,–,–,–,–,–,–,–,–,–
"C=C(C)[C@@H]1CC[C@]2(C(=O)NCC(=O)OC)CC[C@]3(C)C(CCC4[C@@]5(C)Cc6c([nH]c7ccccc67)C(C)(C)C5CC[C@]43C)C12 (stereo partly drawn) [Compound 21, 28-N-Methylglycinate-2,3-didehydroindolo[2′,3′:2,3]betulinamide]",–,–,–,–,–,–,–,–,–,–,–,> 20,> 20,> 20,> 20,> 20,> 20,> 20,> 20,–
"C=C(C)[C@@H]1CC[C@]2(C(=O)O)CC[C@]3(C)[C@H](CC[C@@H]4[C@@]5(C)Cc6c([nH]c7c(Cl)cccc67)C(C)(C)[C@@H]5CC[C@]43C)[C@@H]12 [Compound 9, 7′-Chloro-2,3-didehydroindolo[2′,′:2,3]betulinic acid]",11.8 ± 0.19,6.39,11.66,2.008,11.8 ± 0.35,11.6 ± 0.49,8.7 ± 0.19,9.26 ± 1.6,1,1.017,1.274,–,–,–,–,–,–,–,–,1.356
"CC(C)[C@@H]1CC[C@]2(C(=O)O)CC[C@]3(C)C(CCC4[C@@]5(C)Cc6c([nH]c7ccccc67)C(C)(C)C5CC[C@]43C)C12 (stereo partly drawn) [Compound 2, 2,3-Didehydro-20,29-dihydroindolo[2′,3′:2,3]betulinic acid]",>20,>20,>20,>20,>20,>20,>20,15.07 ± 2.15,–,–,–,–,–,–,–,–,–,–,–,–
"CC(C)[C@@H]1CC[C@]2(C(=O)OCc3ccccc3)CC[C@]3(C)C(CCC4[C@@]5(C)Cc6c([nH]c7ccccc67)C(C)(C)C5CC[C@]43C)C12 (stereo partly drawn) [Compound 16, 28-O-Benzyl-2,3-didehydro-20,29-dihydro[2′,3′:2,3]indolobetulinate]",>20,>20,>20,>20,>20,>20,>20,>20,–,–,–,–,–,–,–,–,–,–,–,–
"C=C(C)[C@@H]1CC[C@]2(C(=O)Nc3nccs3)CC[C@]3(C)C(CCC4[C@@]5(C)Cc6c([nH]c7ccc(Cl)cc67)C(C)(C)C5CC[C@]43C)C12 (stereo partly drawn) [Compound 26, 28-N-(2″-thiazole)-5′-chloro-2,3-didehydroindolo[2′,′:2,3]betulinamide]",>20,>20,>20,>20,>20,>20,>20,>20,–,–,–,–,–,–,–,–,–,–,–,–
"C=C(C)[C@@H]1CC[C@]2(C(=O)O)CC[C@]3(C)C(CCC4[C@@]5(C)Cc6c(oc7ccccc67)C(C)(C)C5CC[C@]43C)C12 (stereo partly drawn) [Compound 11, 2,3-Didehydrobenzfurano[2′,3′:2,3]betulinic acid]",19.03 ± 0.79,>20,>20,>20,>20,>20,>20,>20,<0.952,<0.952,<0.952,–,–,–,–,–,–,–,–,<0.952
"C=C(C)[C@@H]1CC[C@]2(C(=O)OCc3ccccc3)CC[C@]3(C)C(CCC4[C@@]5(C)Cc6c([nH]c7ccccc67)C(C)(C)C5CC[C@]43C)C12 (stereo partly drawn) [Compound 15, 28-O-Benzyl-2,3-didehydro[2′,3′:2,3]indolobetulinate]",>20,>20,>20,>20,>20,>20,>20,>20,–,–,–,–,–,–,–,–,–,–,–,–
